Assay results as given in article PMC12655527, “An Investigational Study on the Role of ADME Agents’ Genetic Variation on DD217 Pharmacokinetics and Safety Profile” (Pharmaceuticals, 2025).

System: patients undergoing knee replacement surgery
Test: Bleeding events during 14-day therapy, phase II trial
Type: in vivo, human
Details: for Bleeding, n (safety outcomes): 14 days
Excerpt: The design, eligibility criteria, and outcomes of the phase II clinical trial evaluating the safety and tolerability of DD217 (NCT05189002, ClinicalTrials.gov) have been described previously. Briefly, this was a multicenter, double-blind, randomized, prospective phase II study designed to determine the optimal dosing regimen and to assess the safety and efficacy of DD217 for the prevention of venous thromboembolism (VTE) in patients undergoing knee replacement surgery. Patients were randomized into one of three groups: two groups received oral DD217 at doses of 40 mg or 60 mg once daily, starting on the morning of the first postoperative day, and one group received the active comparator, dalteparin sodium. The treatment duration was 14 days.
In total, seven cases of DVT/PE were documented during the trial: four in the DD217 40 mg/day group, one in the DD217 60 mg/day group, and two in the dalteparin sodium group. In addition, two bleeding events were recorded: one clinically relevant non-major bleed in the DD217 60 mg/day group and one clinically non-relevant minor bleed in the dalteparin sodium group.

CC(=N)N(C)c1ccc(C(=O)Nc2ccc(C)cc2C(=O)Nc2ccc(Cl)cn2)cc1.Cl [DD217, N-(5-chloropyridin-2-yl)-5-methyl-2-[4-(N-methylacetimidamido)benzamido]benzamide hydrochloride]
Bleeding, n (safety outcomes) (DD217 40 mg/day oral, of 16 patients): 0 n | bleeding events (DD217 60 mg/day group, clinically relevant non-major bleed): one | Bleeding, n (safety outcomes) (DD217 60 mg/day oral, of 18 patients): 1 n
